Structures can show the parent of a compound that is named as a salt.

Turning to `COc1ccc2[nH]c3c(c2c1)CCN(CCc1ccc(-c2cccc(N)n2)c2ccccc12)C3`, the melting point (commonly the temperature, or range, at which the solid turns liquid) was 132 to 138 °C.

In turn, `Nc1cccc(-c2ccc(OC3CN4CCC3CC4)c3ccccc23)n1` (stereo not drawn) (as salt: hydrochloride) returned a melting point of 220 to 228 °C.

In the case of `CN1C2CCC1CC(Oc1ccc(-c3cccc(N)n3)c3ccccc13)C2` (stereo not drawn) (as salt: hydrochloride), the melting point is 260 to 275 °C.

`Nc1cccc(-c2ccc(CCN3CCN(CCc4ccccc4)CC3)c3ccccc23)n1` (as salt: hydrochloride) [Example 1, 6-{4-[2-(4-Phenethyl-piperazin-1-yl)-ethyl]-naphthalen-1-yl)-pyridin-2-ylamine] had a melting point of 80 to 105 °C.

As to `Nc1cccc(-c2ccc(CCN3CC4C(N)C4C3)c3ccccc23)n1` (stereo not drawn) (as salt: hydrochloride) [Example 2, 3-{2-[4-(6-Amino-pyridin-2-yl)-naphthalen-1-yl]-ethyl}-3-aza-bicyclo[3.1.0]hex-6-ylamine], the melting point is 250 to 260 °C.

Molecule `Nc1cccc(-c2ccc(CCN3CCC(C(c4ccccc4)c4ccccc4)CC3)c3ccccc23)n1` (as salt: hydrochloride) [Example 3, 6-{4-[2-(4-Benzhydryl-piperidin-1-yl)-ethyl]-naphthalen-1-yl}-pyridin-2-ylamine] gave a melting point of 225 to 235 °C.

Take `Nc1cccc(-c2ccc(CCNCc3ccc4c(c3)OCO4)c3ccccc23)n1` (as salt: hydrochloride) [Example 6, 6-(4-{2-[(Benzo[1,3]dioxol-5-ylmethyl)-amino]-ethyl}-naphthalen-1-yl)-pyridin-2-ylamine]: the melting point lay in the range of 80 to 110 °C.

Consider `Nc1cccc(-c2ccc(CCNCc3ccc(F)c(F)c3)c3ccccc23)n1` (as salt: hydrochloride) [Example 7, 6-{4-[2-(3,4-Difluoro-benzylamino)-ethyl]-naphthalen-1-yl}-pyridin-2-ylamine], for which the melting point fell in the range of 70 to 80 °C.

Regarding `COc1cc(CNCCc2ccc(-c3cccc(N)n3)c3ccccc23)cc(OC)c1OC` (as salt: hydrochloride) [Example 8, 6-{4-[2-(3,4,5-Trimethoxy-benzylamino)-ethyl]-naphthalen-1-yl}-pyridin-2-ylamine], the melting point was in the range of 75 to 95 °C.

Take `Nc1cccc(-c2ccc(CCNCc3cccc(Cl)c3)c3ccccc23)n1` (as salt: hydrochloride) [Example 9, 6-{4-[2-(3-Chloro-benzylamino)-ethyl]-naphthalen-1-yl}-pyridin-2-ylamine]: the melting point fell in the range of 60 to 75 °C.

The molecule `Nc1cccc(-c2ccc(CCNCc3ccco3)c3ccccc23)n1` (as salt: hydrochloride) [Example 10, 6-(4-{2-[(Furan-2-ylmethyl)-amino]-ethyl}-naphthalen-1-yl)-pyridin-2-ylamine] had a melting point of 185 to 205 °C.

In turn, `Nc1cccc(-c2ccc(CCNCc3ccc(Cl)c(Cl)c3)c3ccccc23)n1` (as salt: hydrochloride) [Example 11, 6-{4-[2-(3,4-Dichloro-benzylamino)-ethyl]-naphthalen-1-yl}-pyridin-2-ylamine] came in with a melting point of 145 to 170 °C.

Regarding `Nc1cccc(-c2ccc(OCCNCc3ccc4c(c3)OCO4)c3ccccc23)n1` (as salt: hydrochloride) [Example 14, 6-(4-{2-[(Benzo[1,3]dioxol-5-ylmethyl)-amino]-ethoxy}-naphthalen-1-yl)-pyridin-2-ylamine], the melting point fell in the range of 60 to 80 °C.

Regarding `COc1cc2c(cc1OC)CN(CCOc1ccc(-c3cccc(N)n3)c3ccccc13)CC2` (as salt: hydrochloride) [Example 15, 6-{4-[2-(6,7-Dimethoxy-3,4-dihydro-1H-isoquinolin-2-yl)-ethoxy]-naphthalen-1-yl}-pyridin-2-ylamine], the melting point is 130 to 150 °C.

`Nc1cccc(-c2ccc(OCCN3CC4C(N)C4C3)c3ccccc23)n1` (stereo not drawn) (as salt: hydrochloride) [Example 16, 3-{2-[4-(6-Amino-pyridin-2-yl)-naphthalen-1-yloxy]-ethyl}-3-aza-bicyclo[3.1.0]hex-6-ylamine] had a melting point of 140 to 155 °C.

For the molecule `Nc1cccc(-c2ccc(OCCN3CCN(CCc4ccccc4)CC3)c3ccccc23)n1` (as salt: hydrochloride) [Example 17, 6-{4-[2-(4-Phenethyl-piperazin-1-yl)-ethoxy]-naphthalen-1-yl}-pyridin-2-ylamine], the melting point is 45 to 80 °C.

As for `Nc1cccc(-c2ccc(OCCN3CCC(N)C3)c3ccccc23)n1` (stereo not drawn) (as salt: hydrochloride) [Example 18, 6-{4-[2-(3-Amino-pyrrolidin-1-yl)-ethoxy]-naphthalen-1-yl}-pyridin-2-ylamine], the melting point fell in the range of 70 to 90 °C.

Consider `Nc1cccc(-c2ccc(OC3CCN(Cc4ccccc4)CC3)c3ccccc23)n1` (as salt: hydrochloride) [Example 24, 6-[4-(1-Benzyl-piperidin-4-yloxy)-naphthalen-1-yl]-pyridin-2-ylamine], for which the melting point is 265 to 285 °C (dec.).

`Nc1cccc(-c2ccc(OC3CCN(Cc4ccccc4)C3)c3ccccc23)n1` (stereo not drawn) (as salt: hydrochloride) [Example 25, 6-[4-(1-Benzyl-pyrrolidin-3-yloxy)-naphthalen-1-yl]-pyridin-2-ylamine] yielded a melting point of 160 to 170 °C.

`CN(C)CCCCOc1ccc(-c2cccc(N)n2)c2ccccc12` (as salt: hydrochloride) [Example 26, 6-[4-(4-Dimethylamino-butoxy)-naphthalen-1-yl]-pyridin-2-ylamine] showed a melting point of 78 to 90 °C.

For the molecule `Nc1cccc(-c2ccc(OC3CCNCC3)c3ccccc23)n1` (as salt: hydrochloride) [Example 27, 6-[4-(Piperidin-4-yloxy)-naphthalen-1-yl]-Pyridin-2-ylamine], the melting point is 65 to 75 °C.

In turn, `Nc1cccc(-c2ccc(OC3CCNC3)c3ccccc23)n1` (stereo not drawn) (as salt: hydrochloride) [Example 28, 6-[4-(Pyrrolidin-3-yloxy)-naphthalen-1-yl]-pyridin-2-ylamine] yielded a melting point of 60 to 70 °C.

On to `CC(C)CN1CCC(Oc2ccc(-c3cccc(N)n3)c3ccccc23)CC1` (as salt: hydrochloride) [Example 29, 6-[4-(1-Isobutyl-piperidin-4-yloxy)-naphthalen-1-yl]-pyridin-2-ylamine], for which the melting point fell in the range of 198 to 210 °C.

`Nc1cccc(-c2ccc(OC3CCN(Cc4ccco4)CC3)c3ccccc23)n1` (as salt: hydrochloride) [Example 30, 6-[4-(1-Furan-2-ylmethyl-piperidin-4-yloxy)-naphthalen-1-yl]-pyridin-2-ylamine] yielded a melting point of 178 to 195 °C.

For `CC(C)CN1CCC(Oc2ccc(-c3cccc(N)n3)c3ccccc23)C1` (stereo not drawn) (as salt: hydrochloride) [Example 31, 6-[4-(1-Isobutyl-pyrrolidin-3-yloxy)-naphthalen-1-yl]-pyridin-2-ylamine], the melting point fell in the range of 78 to 85 °C.

For `Nc1cccc(-c2ccc(OC3CCN(Cc4ccco4)C3)c3ccccc23)n1` (stereo not drawn) (as salt: hydrochloride) [Example 32, 6-[4-(1-Furan-2-ylmethyl-pyrrolidin-3-yloxy)-naphthalen-1-yl]-pyridin-2-ylamine], the melting point lay within 140 to 160 °C.

Turning to `CN1CCC(Oc2ccc(-c3cccc(N)n3)c3ccccc23)CC1` (as salt: hydrochloride) [Example 33, 6-[4-(1-Methyl-piperidin-4-yloxy)-naphthalen-1-yl]-pyridin-2-ylamine], the melting point is 179 to 187 °C.

For `CN(C)CCCOc1ccc(-c2cccc(N)n2)c2ccccc12` (as salt: hydrochloride) [Example 35, 6-[4-(3-Dimethylamino-propoxy)-naphthalen-1-yl]-pyridin-2-ylamine], the melting point lay in the range of 105 to 120 °C.

The molecule `CN(CCOc1ccc(-c2cccc(N)n2)c2c1CCCC2)C(C)(C)C` (as salt: hydrochloride) [Example 39, 6-{4-[2-(tert-Butyl-methyl-amino)-ethoxy]-5,6,7,8-tetrahydro-naphthalen-1-yl}-pyridin-2-ylamine] gave a melting point of 65 to 90 °C.

In the case of `CC(C)N(CCOc1ccc(-c2cccc(N)n2)c2c1CCCC2)C(C)C` (as salt: hydrochloride) [Example 40, 6-[4-(2-Diisopropylamino-ethoxy)-5,6,7,8-tetrahydro-naphthalen-1-yl]-pyridin-2-ylamine], the melting point lay within 50 to 60 °C.

In turn, `Nc1cccc(-c2ccc(OCCN3CCN(CCc4ccccc4)CC3)c3c2CCC3)n1` (as salt: hydrochloride) [Example 61, 6-[7-[(4-Phenethylpiperazin-1-yl)-ethoxy]-indan-4-yl]-pyridin-2-ylamine] returned a melting point of 105 to 130 °C.

Regarding `CC(C)CN1CCN(CCOc2ccc(-c3cccc(N)n3)c3c2CCC3)CC1` (as salt: hydrochloride) [Example 62, 6-[7-[(4-Isobutylpiperazin-1-yl)-ethoxy]-indan-4-yl]-pyridin-2-ylamine], the melting point is 170 to 190 °C.

`Nc1cccc(-c2ccc(OC3CCCCC3N)c3ccccc23)n1` (stereo not drawn) (as salt: hydrochloride) [Example 63, 6-[4-(2-Amino-cyclohexyloxy)-naphthalen-1-yl]-pyridin-2-ylamine] had a melting point of 218 to 230 °C.

As for `Nc1cccc(-c2ccc(OCC3CCCNC3)c3ccccc23)n1` (stereo not drawn) (as salt: hydrochloride) [Example 64, 6-[4-(Piperidin-3-ylmethoxy)-naphthalen-1-yl]-pyridin-2-ylamine], the melting point fell in the range of 164 to 185 °C.

Molecule `CC(C)CN1CC(Oc2ccc(-c3cccc(N)n3)c3ccccc23)C1` (as salt: hydrochloride) [Example 65, 6-[4-(1-Isobutyl-azetidin-3-yloxy)-naphthalen-1-yl]-pyridin-2-ylamine] yielded a melting point of 133 to 148 °C.

On to `Nc1cccc(-c2ccc(OC3CN(Cc4ccco4)C3)c3ccccc23)n1` (as salt: hydrochloride) [Example 67, 6-[4-(1-Furan-2-ylmethyl-azetidin-3-yloxy)-naphthalen-1-yl]-pyridin-2-ylamine], for which the melting point lay within 75 to 90 °C.

The values above are taken from US7012078B2, “2-aminopyridines containing fused ring substituents” (Pfizer Inc., priority 1997, dated 2006).
